Results reported in article PMC5679651, “Complex antigen presentation pathway for an HLA-A*0201-restricted epitope from Chikungunya 6K protein” (PLoS Neglected Tropical Diseases, 2017).
Like-named read-outs stand apart in the source and are kept apart here. Square brackets hold non-standard residues; d marks the D form. Ends that are not written are not given here. Peptide text beside a SMILES is read from it. * marks the point of attachment. Sta = CC(C)C[C@H](N)[C@@H](O)CC(=O)O; Isovaleryl = CC(C)CC(=O)*

Tests used:
HLA-A*0201 [1] = target: HLA-A*0201 (Homo sapiens, UniProt P04439, /I218V/L300P/L318F/N151K/N90K/P208A/P217A/Q86G/Q94H/R138H/R169H/T345S); assay: biochemical; assay type: binding; details: HLA-A*0201-transfected TAP-deficient RMA-S cells, peptide 2 h 26°C then 2 h 37°C, concentration range 0.001-100 μM, mAb PA2.1, flow cytometry, mean ± SD of four independent experiments, read-out: HLA-A*0201 Affinity values, EC50
[2] = system: CHIKV 6K51-59 epitope presentation by rVACV-CHIKV-infected HLA-A*0201+ DC; assay: cells; assay type: cell-based, HLA-A*0201-transgenic mice
[3] = system: VACV D12I251-259 epitope presentation by infected HLA-A*0201+ DC; assay type: cell-based, HLA-A*0201-transgenic mice; details: for percentage of inhibition of recognition by VACV D12I251-259-specific CD8+ T cells: SD
HLA-A*0201 [4] = target: HLA-A*0201 (Homo sapiens, UniProt P04439, D140Y/D185E/D98H/E176V/E277Q/G131W/G231S/I119V/I121R/I166T/I218V/L300P/L318F/N151K/N90K/P208A/P217A/Q86G/Q94H/R138H/R169H/T345S); assay: biochemical; assay type: binding; details: HLA-A*0201-transfected TAP-deficient RMA-S cells; for binding to HLA-A*0201 (HLA-peptide surface complexes), in words: MHC-peptide complex stability assay
[5] = system: CHIKV 6K peptide-specific CD8+ T cell lines; assay type: cell-based, HLA-A*0201-transgenic mice; details: ICS
[6] = Mus musculus, T-cell, 5 h, read-out: percentage of inhibition of recognition by CHIKV 6K51-59-specific CD8+ T cells, SD

Molecule	EC50 (HLA-A*0201 [1]; SD) [µM]	effect on recognition by CHIKV 6K51-59-specific CD8+ T cell line, in words [2]	further results
CC(C)C[C@H](NC(=O)[C@H](CC(C)C)NC(=O)[C@H](CCCNC(=N)N)NC(=O)[C@H](CC(C)C)NC(=O)[C@H](CS)NC(=O)[C@H](CC(N)=O)NC(=O)[C@H](CS)NC(=O)[C@H](CC(C)C)NC(=O)[C@@H](N)C(C)C)C(=O)O [6K 31–39] (H-VLCNCLRLL-OH)	5 ± 3		
CC(C)C[C@H](NC(=O)[C@@H](NC(=O)[C@H](CCCCN)NC(=O)[C@H](CS)NC(=O)[C@H](CS)NC(=O)[C@H](CS)NC(=O)[C@@H]1CCCN1C(=O)[C@H](CC(C)C)NC(=O)[C@H](CC(C)C)NC(=O)[C@@H](N)CCCNC(=N)N)[C@@H](C)O)C(=O)O [6K 37–46] (H-RLLPCCCKTL-OH)	8 ± 6		
CC(C)C[C@H](NC(=O)[C@@H](O)[C@H](N)Cc1ccccc1)C(=O)O [BEST, Bestatin]		unaffected	
C[C@H]1CCC/C=C/[C@@H]2C[C@H](O)C[C@H]2[C@H](O)/C=C/C(=O)O1 [BFA, Brefeldin]		completely inhibited	effect on VACV D12I251-259 epitope presentation, in words [3]: complete inhibition
CCN(CC)CCCC(C)Nc1ccnc2cc(Cl)ccc12 (stereo not drawn) [CQ, Chloroquine]			inhibition at 50 µM [2, 6]: 69 ± 19%
CC(C)C[C@H](NC(=O)[C@H]1O[C@@H]1C(=O)O)C(=O)NCCCCN=C(N)N [E64]		None of these inhibitors affected	
O=C(O)CN(CCN(CC(=O)O)CC(=O)O)CC(=O)O [EDTA, Ethylenediaminetetraacetic acid]		unaffected	
CC(=O)N[C@@H](CSC(=O)[C@]1([C@@H](O)C(C)C)NC(=O)[C@H](C)[C@@H]1O)C(=O)O [LC, Lactacystin]			effect on VACV D12I251-259 epitope presentation, in words [3]: lesser effect; inhibition at 10 µM [2, 6]: 83 ± 3%
CC(=O)N[C@@H](CC(C)C)C(=O)N[C@@H](CC(C)C)C(=O)N[C@H](C=O)CCCNC(=N)N [LEU, Leupeptin]		None of these inhibitors affected	
CC(C)C[C@H](N)CS [Leu-SH, Leucinthiol]			effect on VACV D12I251-259 epitope presentation, in words [3]: lesser effect; percentage of inhibition of recognition by CHIKV 6K51-59-specific CD8+ T cells ([2]; SD): 91 ± 13%
CC(C)CC(=O)N[C@H](C(=O)N[C@H](C(=O)N[C@@H](CC(C)C)[C@@H](O)CC(=O)N[C@@H](C)C(=O)N[C@@H](CC(C)C)[C@@H](O)CC(=O)O)C(C)C)C(C)C [PEPST, Pepstatin] (Isovaleryl-VV[Sta]A[Sta]-OH)		None of these inhibitors affected	
c1cnc2c(c1)ccc1cccnc12 [PHE, 1–10 Phenanthroline]		None of these inhibitors affected	
O=S(=O)(F)Cc1ccccc1 [PMSF, Phenylmethane sulfonylfluoride]		None of these inhibitors affected	
COc1ccc(C[C@H](N)C(=O)N[C@H]2[C@@H](O)[C@H](n3cnc4c(N(C)C)ncnc43)O[C@@H]2CO)cc1 [PURO, Puromycin]			percentage of inhibition of recognition by VACV D12I251-259-specific CD8+ T cells [3]: 4 ± 6%; inhibition at 0.5 µg/mL [2, 6]: 47 ± 21%
ALIPLAALI [6K 22–30]	33 ± 28		
ALIPLAALIV [6K 22–31]	21 ± 20		
ALIVLCNCL [6K 28–36]			binding to HLA-A*0201 (HLA-peptide surface complexes), in words (HLA-A*0201 [4]): not detected; HLA-A*0201 Affinity values, EC50 (HLA-A*0201 [4]; peptide 2 h 26°C then 2 h 37°C, concentration range 0.001-100 μM, mAb PA2.1, flow cytometry, mean ± SD of four independent experiments): No binding
Decanoyl-Arg-Val-Lys-Arg-chloromethylketone [dec-RVKR]			percentage of inhibition of recognition by VACV D12I251-259-specific CD8+ T cells [3]: 4 ± 6%; percentage of inhibition of recognition by CHIKV 6K51-59-specific CD8+ T cells ([2]; SD): 43 ± 20%
ILDRIITNA [A10L 688-696]	3 ± 3		
QALIPLAAL [6K 21–29]			specific recognition of peptide-pulsed DC by CTL line, in words [5]: no specific recognition; binding to HLA-A*0201 (HLA-peptide surface complexes), in words (HLA-A*0201 [4]): residual; EC50 (HLA-A*0201 [1]): > 200 µM
TLAFLAVMSV [6K 45–54]	1 ± 0.5		
VMSVGAHTV [6K 51–59]	9 ± 1		
